The conditions of data set [1]: comparison between perfluorochemicals; cited from earlier work.
The conditions of data set [2]: 37° C.; cited from earlier work.
Data set [3] in a line: Elimination property: half reduction term in the body of the rat. It is filed as in vivo. Here is the method:
(§1) According to the above preparation method of the emulsion, the emulsions of various perfluoroalkyl ether derivatives are prepared. Nine parts by volume of the resulting emulsion were diluted with 1 part by volume of an electrolyte solution of the following composition:
(§2) The emulsions were sterized by heating at 100° C. for 30 minutes in a nitrogen atmosphere. The emulsions were used for the following test.
This property was measured by the half reduction term in the body of the rat, and evaluated as follows: […]

The nature of data set [4]: Stability of emulsion stored at 4° C. (change of particle size). It is filed as physicochemical. More on the design: key: Excellent: Particle size is hardly increased one month after the storage.; Good: The increase of the particle size is at most 50% or liquid-particle separation is observed one month after the storage. Conditions: one month at 4° C., emulsion sterilized 100° C. 30 min. How it is done: as §1, §2
The emulsions were stored at 4° C. and the stability was measured in terms of the change of the particle size by the following measures.
Good: The increase of the particle size is at most 50% or liquid-particle separation is observed one month after the storage.

The test system of the next data set is wister male rats. Put plainly: Acute toxicity after intravenous injection of emulsion, observed by dissection (pulmonary emphysema). The data set is classed as in vivo. Conditions: i.v., rat, one week after injection. How it is done: as §1, §2
The emulsions which had been made physiologically isotonic were injected intravenously to the wister male rats of 100 to 200 g. One week after the injection acute toxicity was observed by dissection, and evaluation was effected according to the following measures.
Toxic: Occurrence of pulmonary emphysema. LD50 : 2-4 g/kg
Non toxicic: No occurence of pulmonary emphysema. LD50 : above 20 g/kg

Data set [5] can be described thus: Vapor pressure of the perfluorochemical.

Data on 22 compounds can be found in patent US4943595A, “Perfluorochemicals and process for preparing the same” (The Green Cross Corporation, priority 1984, dated 1990).

Read-outs that look alike come from different tables or passages of the source.

With `FC1(F)C(F)(F)C(F)(F)C2(F)C(F)(F)C(F)(F)C(F)(F)C(F)(F)C2(F)C1(F)F` (stereo not drawn) [IV], in data set [1], the “elimination rate (in words)” value is given as “IV>>III≥I >II”.

As for `FC1(F)C(F)(F)C(F)(F)[C@]2(F)C(F)(F)C(F)(F)C(F)(F)C(F)(F)[C@]2(F)C1(F)F` [perfluoro-cis-decalin], the “elimination rate (in words)” value in data set [1] is on record as “slightly higher elimination rate than the trans isomer”. The Vapor pressure in data set [2] is given as 10.1 mmHg. With `FC(F)(F)C(F)(F)C(F)(F)OC(F)(C(F)(C(F)(F)F)C(F)(F)F)C(F)(C(F)(F)F)C(F)(F)F` [drawing 62], the Elimination property result in data set [3] was “fair”. In addition, in data set [4], the “Stability of Emulsion” value was “excellent”. Turning to `FC(F)(F)C(F)(F)C(F)(F)C(F)(F)C(F)(F)OC(F)(F)C(F)(F)C(F)(F)C(F)(F)C(F)(F)F` [I], the “elimination rate (in words)” value in data set [1] is “IV>>III≥I >II”.

With `FC(F)(F)C(F)(F)OC(C(F)(F)F)(C(F)(C(F)(F)F)C(F)(F)F)C(F)(C(F)(F)F)C(F)(F)F`, the “Stability of Emulsion” value in data set [4] is reported as “excellent”. Turning to `FC1(F)C(F)(F)C(F)(F)[C@]2(F)C(F)(F)C(F)(F)C(F)(F)C(F)(F)[C@@]2(F)C1(F)F` [trans isomer], the Vapor pressure in data set [2] is listed as 11.6 mmHg. With `FC(F)(F)C(F)(F)C(F)(F)C(F)(F)OC(C(F)(F)F)(C(F)(F)F)C(F)(F)C(F)(F)C(F)(F)F` [drawing 61], in data set [4], the “Stability of Emulsion” value is “Excellent”. Also, the Toxicity entry in the data set with wister male rats is “Non tox- ic”. For the compound `FC(F)(F)C(F)(F)C1(C(F)(F)F)C(F)(C(F)(F)F)OC(F)(C(F)(F)F)C1(F)C(F)(F)F` (stereo not drawn) [II], the “elimination rate (in words)” value in data set [1] is given as “IV>>III≥I >II”.

For `FC(F)(F)N(C(F)(F)F)C(C(F)(F)F)(C(F)(F)F)C(F)(F)C(F)(F)C(F)(F)F` [Example 38, perfluoro-2-dimethylamino-2-methylpentane], the Vapor pressure in data set [5] (38° C.) is 37-38 mmHg. The same measure, in the same setting: under `FC(F)(F)C(F)(F)C(F)(F)C(OC(F)(F)C(F)(C(F)(F)F)C(F)(F)F)(C(F)(F)F)C(F)(F)F` [Ex. 15, Perfluoro-2-isobutoxy-2-methylpentane] stands 15-16 mmHg; under `FC(F)(F)OC(OC(F)(F)C(F)(F)C(F)(F)C(F)(F)C(F)(F)F)(C(F)(F)F)C(F)(F)F` [Example 30, perfluoro-2-pentoxy-2-methoxypropane], 28-29 mmHg. As to `FC(F)(F)C(F)(F)C(F)(F)C(F)(F)OC(F)(C(F)(F)C(F)(F)F)C(F)(C(F)(F)F)C(F)(F)F` (stereo not drawn) [Ex. 3, Perfluoro-3-n-butoxy-methylpentane], the Vapor pressure in data set [5] (37.5° C.) is 11-13 mmHg. `FC(F)(F)C(F)(F)C(F)(F)C(OC(F)(C(F)(F)F)C(F)(F)C(F)(F)F)(C(F)(F)F)C(F)(F)F` (stereo not drawn) [Ex. 16, Perfluoro-2-sec-butoxy-2-methylpentane]: the Vapor pressure in data set [5] (38° C.) is listed as 15-16 mmHg. As to `FC(F)(F)OC(F)(C(F)(F)F)C(F)(F)C(C(F)(F)F)(C(F)(F)C(F)(F)F)C(F)(F)C(F)(F)F` (stereo not drawn) [drawing 63], the “Stability of Emulsion” value in data set [4] is “good”. As to `FC(F)(F)C(F)(F)N(C(F)(F)C(F)(F)F)C(F)(F)C(F)(C(F)(F)F)C(F)(F)C(F)(F)C(F)(F)F` (stereo not drawn) [Example 35, perfluoro-1-diethylamino-2-methylpentane], the Vapor pressure in data set [5] (38° C.) was 8-9 mmHg. As to `FC(F)(F)C(F)(F)C(F)(OC(F)(C(F)(F)C(F)(F)F)C(F)(C(F)(F)F)C(F)(F)F)C(F)(F)F` (stereo not drawn) [Ex. 5, Perfluoro-3-sec-butoxy-2-methylpentane], the Vapor pressure in data set [5] (37.5° C.) was 13-14 mmHg. In the case of `FC(F)(F)C(F)(F)C(F)(F)OC(F)(F)C(F)(F)C(F)(F)C(F)(F)C(F)(F)C(F)(F)C(F)(F)F` [Example 18, Perfluoro-1-n-propoxyheptane], in data set [5] (38° C.), the Vapor pressure is reported as 15-16 mmHg. For the same compound, the Elimination property result in data set [3] was “poort”. In data set [4], the “Stability of Emulsion” value is “good”. Regarding `FC(F)(F)C(F)(F)C(F)(F)C(F)(F)C1(F)C(F)(F)C(F)(F)C(F)(F)C(F)(F)C1(F)F` [III], the “elimination rate (in words)” value in data set [1] is given as “IV>>III≥I >II”. `FC(F)(F)C(F)(F)OC(F)(F)C(F)(C(F)(F)F)C(F)(OC(F)(F)C(F)(F)F)C(F)(F)C(F)(F)F` (stereo not drawn) [Example 28, perfluoro-1,3-diethoxy-2-methylpentane]: in data set [5] (38° C.), the Vapor pressure was 13-14 mmHg. On the same count and under the same terms, under `FC(F)(F)C(F)(F)C(F)(F)C(F)(F)C(F)(F)C(F)(F)C(F)(F)OC(F)(F)C(F)(C(F)(F)F)C(F)(F)F` [Ex. 22, Perfluoro-1-isobutoxyheptane] stands 8-9 mmHg. On the same count and under the same terms, under `FC(F)(F)N(C(F)(F)F)C(F)(C(F)(F)C(F)(F)F)C(F)(C(F)(F)F)C(F)(F)F` (stereo not drawn) [Example 42, 3-perfluoro-3-dimethylamino-2-methylpentane] stands 37-38 mmHg. Still for that read-out and setting: with `FC(F)(F)C(F)(F)N(C(F)(F)C(F)(F)F)C(F)(C(F)(F)C(F)(F)F)C(F)(C(F)(F)F)C(F)(F)F` (stereo not drawn) [Example 43, perfluoro-3-diethylamino-2-methylpentane] the figure was 9-10 mmHg.
